Square brackets hold non-standard residues; d marks the D form. Peptide text beside a SMILES is read from it. Aib = CC(C)(N)C(=O)O
Target: T1, human GLP-1 R (Homo sapiens, UniProt P43220)
T1 construct: expressed in transfected cells
Experiment: Human GLP-1 receptor (GLP-1 R) activity assay, cAMP induction (AlphaScreen cAMP kit)
Assay type: cell-based
Details: HEK293 cells expressing the human GLP-1 R, 15 min at 37° C., average values of multiple determinations, read-out: GLP1 R (EC50 in nM)
Experimental: Human GIP Receptor (GIP R) and GLP-1 Receptor (GLP-1 R) Activity Assay
In vitro effects of peptide conjugates of the invention were assessed by measuring the induction of cAMP following stimulation of the respective receptor by GIP, GLP1 or analogues of these, as outlined in the invention, using the AlphaSceen® cAMP kit from Perkin-Elmer according to instructions. Briefly. HEK293 cells expressing the human GIP R or GLP-1 R (stable cell lines generated through transfection of the cDNA for human GIP R or GLP-1 and selection of stable clones) were seeded at 30,000 cells/well in 96-well microtiter plates coated with 0.01% poly-L-lysine, and grown for 1 day in culture in 200 μl growth medium (DMEM, 10% FCS, Penicillin (100 IU/ml), Streptomycin (100 μg/ml)). On the day of analysis, growth medium was removed and the cells were washed once with […] Tyrode's buffer (Tyrode's Salts (9.6 g/1), 10 mM HEPES, pH 7.4). […] The Assay buffer was removed and cells are lysed in 80 μl Lysis buffer (0.1% w/v BSA, 5 mM HEPES, 0.3% v/v Tween-20) per well. From each well 10 μl lysed cells was transferred to a 384-well plate and mixed with 15 μl bead-mix (1 Unit/15 μl anti-cAMP Acceptor Beads, 1 Unit/15 μl Donor Beads, and 1 Unit/15 μl Biotinylated cAMP in Assay Buffer). The plates were mixed and incubated in the dark for an hour at room temperature before measuring using an Envision™ plate reader (Perkin-Elmer).

T1 sequence (P43220 24-463): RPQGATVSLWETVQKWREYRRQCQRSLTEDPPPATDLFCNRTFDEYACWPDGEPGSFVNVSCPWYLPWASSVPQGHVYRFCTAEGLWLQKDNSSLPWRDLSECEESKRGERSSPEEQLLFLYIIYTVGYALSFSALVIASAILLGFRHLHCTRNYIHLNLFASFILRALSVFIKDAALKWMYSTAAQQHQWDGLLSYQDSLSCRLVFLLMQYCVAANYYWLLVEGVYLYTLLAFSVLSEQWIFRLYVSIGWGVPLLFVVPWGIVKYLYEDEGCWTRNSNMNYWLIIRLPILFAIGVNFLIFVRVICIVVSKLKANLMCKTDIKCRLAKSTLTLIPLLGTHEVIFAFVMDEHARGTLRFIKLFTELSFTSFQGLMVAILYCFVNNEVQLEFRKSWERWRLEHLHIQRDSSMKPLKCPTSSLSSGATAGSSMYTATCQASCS

Row | SMILES | EC50 [nM]
1 | CC[C@H](C)[C@H](NC(=O)[C@H](CO)NC(=O)[C@H](Cc1ccc(O)cc1)NC(=O)[C@H](CC(=O)O)NC(=O)[C@H](CO)NC(=O)[C@@H](NC(=O)[C@H](Cc1ccccc1)NC(=O)[C@@H](NC(=O)CNC(=O)[C@H](CCC(=O)O)NC(=O)C(C)(C)NC(=O)[C@@H](N)Cc1ccc(O)cc1)[C@@H](C)O)[C@@H](C)O)C(=O)NC(C)(C)C(=O)N[C@@H](CC(C)C)C(=O)N[C@@H](CC(=O)O)C(=O)N[C@@H](CCCCN)C(=O)N[C@@H](CCCCN)C(=O)N[C@@H](C)C(=O)N[C@@H](CCC(N)=O)C(=O)N[C@@H](CCCNC(=N)N)C(=O)N[C@@H](C)C(=O)N[C@@H](Cc1ccccc1)C(=O)N[C@H](C(=O)N[C@@H](CCC(=O)O)C(=O)N[C@@H](Cc1c[nH]c2ccccc12)C(=O)N[C@@H](CC(C)C)C(=O)N[C@@H](CC(C)C)C(=O)N[C@@H](C)C(=O)N[C@@H](CCC(N)=O)C(=O)NCC(=O)N1CCC[C@H]1C(=O)N[C@@H](CO)C(=O)N[C@@H](CO)C(=O)NCC(=O)N[C@@H](C)C(=O)N1CCC[C@H]1C(=O)N1CCC[C@H]1C(=O)N1CCC[C@H]1C(=O)N[C@@H](CO)C(N)=O)C(C)C [Compound 2] (H-Y[Aib]EGTFTSDYSI[Aib]LDKKAQRAFVEWLLAQGPSSGAPPPS-NH2) | 0.015
2 | CC[C@H](C)[C@H](NC(=O)[C@H](CO)NC(=O)[C@H](Cc1ccc(O)cc1)NC(=O)[C@H](CC(=O)O)NC(=O)[C@H](CO)NC(=O)[C@@H](NC(=O)[C@H](Cc1ccccc1)NC(=O)[C@@H](NC(=O)CNC(=O)[C@H](CCC(=O)O)NC(=O)C(C)(C)NC(=O)[C@@H](N)Cc1ccc(O)cc1)[C@@H](C)O)[C@@H](C)O)C(=O)N[C@@H](C)C(=O)N[C@@H](CC(C)C)C(=O)N[C@@H](CC(=O)O)C(=O)N[C@@H](CCCCN)C(=O)N[C@@H](CCCCN)C(=O)N[C@@H](C)C(=O)N[C@@H](CCC(N)=O)C(=O)N[C@@H](CCCNC(=N)N)C(=O)N[C@@H](C)C(=O)N[C@@H](Cc1ccccc1)C(=O)N[C@H](C(=O)N[C@@H](CC(N)=O)C(=O)N[C@@H](Cc1c[nH]c2ccccc12)C(=O)N[C@@H](CC(C)C)C(=O)N[C@@H](CC(C)C)C(=O)N[C@@H](C)C(=O)NC(C)(C)C(=O)N[C@@H](CCCCN)C(N)=O)C(C)C [Compound 12] (H-Y[Aib]EGTFTSDYSIALDKKAQRAFVNWLLA[Aib]K-NH2) | 0.01
3 | CC[C@H](C)[C@H](NC(=O)[C@H](CO)NC(=O)[C@H](Cc1ccc(O)cc1)NC(=O)[C@H](CC(=O)O)NC(=O)[C@H](CO)NC(=O)[C@@H](NC(=O)[C@H](Cc1ccccc1)NC(=O)[C@@H](NC(=O)CNC(=O)[C@H](CCC(=O)O)NC(=O)C(C)(C)NC(=O)[C@@H](N)Cc1ccc(O)cc1)[C@@H](C)O)[C@@H](C)O)C(=O)N[C@@H](Cc1ccc(O)cc1)C(=O)N[C@@H](CC(C)C)C(=O)N[C@@H](CCC(=O)O)C(=O)N[C@@H](CCCCN)C(=O)N[C@@H](CCCCN)C(=O)N[C@@H](C)C(=O)N[C@@H](CCC(N)=O)C(=O)N[C@@H](CCCNC(=N)N)C(=O)N[C@@H](C)C(=O)N[C@@H](Cc1ccccc1)C(=O)N[C@H](C(=O)N[C@@H](CC(N)=O)C(=O)N[C@@H](Cc1c[nH]c2ccccc12)C(=O)N[C@@H](CC(C)C)C(=O)N[C@@H](CC(C)C)C(=O)N[C@@H](C)C(=O)NC(C)(C)C(=O)N[C@@H](CCCCN)C(N)=O)C(C)C [Compound 14] (H-Y[Aib]EGTFTSDYSIYLEKKAQRAFVNWLLA[Aib]K-NH2) | 0.0087
4 | CC[C@H](C)[C@H](NC(=O)[C@H](CO)NC(=O)[C@H](Cc1ccc(O)cc1)NC(=O)[C@H](CC(=O)O)NC(=O)[C@H](CO)NC(=O)[C@@H](NC(=O)[C@H](Cc1ccccc1)NC(=O)[C@@H](NC(=O)CNC(=O)[C@H](CCC(=O)O)NC(=O)C(C)(C)NC(=O)[C@@H](N)Cc1ccc(O)cc1)[C@@H](C)O)[C@@H](C)O)C(=O)N[C@@H](C)C(=O)N[C@@H](CC(C)C)C(=O)N[C@@H](CCC(=O)O)C(=O)N[C@@H](CCCCN)C(=O)N[C@@H](CCCCN)C(=O)N[C@@H](C)C(=O)N[C@@H](CCC(N)=O)C(=O)N[C@@H](CCCNC(=N)N)C(=O)N[C@@H](C)C(=O)N[C@@H](Cc1ccccc1)C(=O)N[C@H](C(=O)N[C@@H](CC(N)=O)C(=O)N[C@@H](Cc1c[nH]c2ccccc12)C(=O)N[C@@H](CC(C)C)C(=O)N[C@@H](CC(C)C)C(=O)N[C@@H](C)C(=O)NC(C)(C)C(=O)N[C@@H](CCCCN)C(N)=O)C(C)C [Compound 15] (H-Y[Aib]EGTFTSDYSIALEKKAQRAFVNWLLA[Aib]K-NH2) | 0.01
5 | CC[C@H](C)[C@H](NC(=O)[C@H](CO)NC(=O)[C@H](Cc1ccc(O)cc1)NC(=O)[C@H](CC(=O)O)NC(=O)[C@H](CO)NC(=O)[C@@H](NC(=O)[C@H](Cc1ccccc1)NC(=O)[C@@H](NC(=O)CNC(=O)[C@H](CCC(=O)O)NC(=O)C(C)(C)NC(=O)[C@@H](N)Cc1ccc(O)cc1)[C@@H](C)O)[C@@H](C)O)C(=O)N[C@@H](Cc1ccc(O)cc1)C(=O)N[C@@H](CC(C)C)C(=O)N[C@@H](CC(=O)O)C(=O)N[C@@H](CO)C(=O)N[C@@H](CCCCN)C(=O)N[C@@H](C)C(=O)N[C@@H](CCCCN)C(=O)N[C@@H](CCCNC(=N)N)C(=O)N[C@@H](C)C(=O)N[C@@H](Cc1ccccc1)C(=O)N[C@H](C(=O)N[C@@H](CC(N)=O)C(=O)N[C@@H](Cc1c[nH]c2ccccc12)C(=O)N[C@@H](CC(C)C)C(=O)N[C@@H](CC(C)C)C(=O)N[C@@H](C)C(=O)NC(C)(C)C(=O)N[C@@H](CCCCN)C(N)=O)C(C)C [Compound 18] (H-Y[Aib]EGTFTSDYSIYLDSKAKRAFVNWLLA[Aib]K-NH2) | 0.015
6 | CC[C@H](C)[C@H](NC(=O)[C@H](CO)NC(=O)[C@H](Cc1ccc(O)cc1)NC(=O)[C@H](CC(=O)O)NC(=O)[C@H](CO)NC(=O)[C@@H](NC(=O)[C@H](Cc1ccccc1)NC(=O)[C@@H](NC(=O)CNC(=O)[C@H](CCC(=O)O)NC(=O)C(C)(C)NC(=O)[C@@H](N)Cc1ccc(O)cc1)[C@@H](C)O)[C@@H](C)O)C(=O)N[C@@H](Cc1ccc(O)cc1)C(=O)N[C@@H](CC(C)C)C(=O)N[C@@H](CC(=O)O)C(=O)N[C@@H](CCCCN)C(=O)N[C@@H](CCCCN)C(=O)N[C@@H](C)C(=O)N[C@@H](CCC(N)=O)C(=O)N[C@@H](CCCNC(=N)N)C(=O)N[C@@H](C)C(=O)N[C@@H](Cc1ccccc1)C(=O)N[C@H](C(=O)N[C@@H](CCCCN)C(=O)N[C@@H](Cc1c[nH]c2ccccc12)C(=O)N[C@@H](CC(C)C)C(=O)N[C@@H](CC(C)C)C(=O)N[C@@H](C)C(=O)NC(C)(C)C(=O)N[C@@H](CCCCN)C(N)=O)C(C)C [Compound 20] (H-Y[Aib]EGTFTSDYSIYLDKKAQRAFVKWLLA[Aib]K-NH2) | 0.009
7 | CC[C@H](C)[C@H](NC(=O)[C@H](CO)NC(=O)[C@H](Cc1ccc(O)cc1)NC(=O)[C@H](CC(=O)O)NC(=O)[C@H](CO)NC(=O)[C@@H](NC(=O)[C@H](Cc1ccccc1)NC(=O)[C@@H](NC(=O)CNC(=O)[C@H](CCC(=O)O)NC(=O)C(C)(C)NC(=O)[C@@H](N)Cc1ccc(O)cc1)[C@@H](C)O)[C@@H](C)O)C(=O)N[C@@H](Cc1ccc(O)cc1)C(=O)N[C@@H](CC(C)C)C(=O)N[C@@H](CC(=O)O)C(=O)N[C@@H](CCCCN)C(=O)N[C@@H](CCCCN)C(=O)N[C@@H](C)C(=O)N[C@@H](CCC(N)=O)C(=O)N[C@@H](CCCNC(=N)N)C(=O)N[C@@H](C)C(=O)N[C@@H](Cc1ccccc1)C(=O)N[C@H](C(=O)N[C@@H](CC(N)=O)C(=O)N[C@@H](Cc1c[nH]c2ccccc12)C(=O)N[C@@H](CC(C)C)C(=O)N[C@H](C(=O)N[C@@H](C)C(=O)NC(C)(C)C(=O)N[C@@H](CCCCN)C(N)=O)C(C)C)C(C)C [Compound 21] (H-Y[Aib]EGTFTSDYSIYLDKKAQRAFVNWLVA[Aib]K-NH2) | 0.009
8 | CC[C@H](C)[C@H](NC(=O)[C@H](CO)NC(=O)[C@H](Cc1ccc(O)cc1)NC(=O)[C@H](CC(=O)O)NC(=O)[C@H](CO)NC(=O)[C@@H](NC(=O)[C@H](Cc1ccccc1)NC(=O)[C@@H](NC(=O)CNC(=O)[C@H](CCC(=O)O)NC(=O)C(C)(C)NC(=O)[C@@H](N)Cc1ccc(O)cc1)[C@@H](C)O)[C@@H](C)O)C(=O)N[C@@H](Cc1ccc(O)cc1)C(=O)N[C@@H](CC(C)C)C(=O)N[C@@H](CC(=O)O)C(=O)N[C@@H](CCCCN)C(=O)N[C@@H](CCCCN)C(=O)N[C@@H](C)C(=O)N[C@@H](CCC(N)=O)C(=O)N[C@@H](CCCNC(=N)N)C(=O)N[C@@H](C)C(=O)N[C@@H](Cc1ccccc1)C(=O)N[C@H](C(=O)N[C@@H](CC(N)=O)C(=O)N[C@@H](Cc1c[nH]c2ccccc12)C(=O)N[C@@H](CC(C)C)C(=O)N[C@@H](CCCCN)C(=O)N[C@@H](C)C(=O)NC(C)(C)C(=O)N[C@@H](CCCCN)C(N)=O)C(C)C [Compound 23] (H-Y[Aib]EGTFTSDYSIYLDKKAQRAFVNWLKA[Aib]K-NH2) | 0.012

— US10100097B2, “GIP-GLP-1 dual agonist compounds and methods” (Zealand Pharma A/S, priority 2012, dated 2018)
